A short description of series [1]: 15a plasma levels by LC-MS after a single intraperitoneal dose. In kind it is in vivo. The note with it: apoE−/−, mouse. As for the experimental part:
To measure plasma concentrations of 15a over time, Western type diet fed mice were injected with 5 mg/kg 15a, after which blood samples were taken at fixed time points (1, 2, 6 and 24 hours after injection). Blood samples were processed as described below under “Measurement of 15a plasma levels”. The final dose of 5 mg/kg/day was based on a pilot study in which two different doses (1.5 and 5 mg/kg/day) were tested using leucocyte migration towards the peritoneal cavity as a read-out. […] In addition, the dose of 5 mg/kg was also based on a previous study with TAK-779[38], in which a dose of 5 mg/kg was used.
Blood plasma from mice was analyzed by LC-MS to determine 15a plasma levels. 20 μL of internal standard (compound 15b, a diastereomer of 15a[24]) and 20 μL of solvent C (20% (v/v) Acetonitrile and 0.1% (v/v) TFA in LC-MS water) were first mixed with 20 µL of plasma. A calibration curve from 2 to 200 ng/ml of 15a was prepared using solvent C. Calibration samples were prepared as normal samples using blanc plasma and calibration solution instead of solvent C. Aliquots of 40 µL of 1% TFA were added to the samples and mixed well. After addition of 900 µL of ethyl acetate, mixing was performed for 5 minutes at a titramax plate shaker (Heidolph, Swabach, Germany). Samples were then centrifuged at 15,000 × g during 10 minutes and 800 µL of the supernatant was evaporated in a vacuum centrifuge (Labconco, Kansas City, Missouri). The sample was reconstituted by mixing with 10 µL of acetonitrile, followed by addition of 40 µL solvent C. After a second centrifugation at 15,000 × g for 10 minutes, 35 µL of supernatant were transferred to LC vials and inserted into the LC-MS system consisting of a Nexera X2 UHPLC system with two UHPLC pumps (Shimadzu, ’s Hertogenbosch, The Netherlands) connected to a TSQ Quantum Ultra (Thermo Fisher Scientific, Breda, The Netherlands). Separation of 15a was accomplished in a Gemini 3 µm C18 reversed phase HPLC column (50 × 4.6 mm) (Phenomenex, Amstelveen, The Netherlands) using an injection volume of 10 µL and a flow rate of 0.6 ml/min at 40 °C. After elution of 15a with a 9:11 (v/v) ratio of acetonitrile in water with 0.1% TFA, the column was flushed with a gradient up to 90% acetonitrile with 0.1% TFA. The column was re-equilibrated with a 9:11 (v/v) ratio of acetonitrile in water with 0.1% TFA before the next injection. […] The collision energy used was 26 V at a skimmer offset of 16 V, the scan peak width was 0.5 m/z, while the scan time was 0.3 seconds. Sheath gas and auxiliary gas pressure (Nitrogen) were set to 60 and 5 respectively (arbitrary units), and the collision gas Argon was set at 1.0 atm.
To determine the maximal value of k off that would prolong the receptor occupancy even further, we used equation (2)[28], in which BF represents the percentage of target occupancy divided by 100 and t 1/2el represents the plasma elimination half-life (0.693/k el). In this case we set BF to 0.90, as 90% represents the minimum value of target occupancy to achieve efficacy. To obtain the elimination rate constant of compound 15a, a linear regression analysis of the natural logarithm of the concentrations versus time was performed, and the slope coefficient was used as the elimination rate constant k el.2 koff<0.693⋅(1−BF)/t1/2el

The subject of the next series is hCCR2b. As to conditions: cited from earlier work.

Each structure is given as a SMILES string. pKd, pKi: −log10 of the molar value.

By half-life is commonly meant how long it takes for the measured level to halve. Broadly, the pKd is the Kd on a negative log10 scale, so that one unit is a factor of ten. The term koff denotes the first-order rate constant of dissociation. Broadly, the kon is a measure of how fast the partners come together.

`CC(C)[C@]1(C(=O)N2CCc3ccc(C(F)(F)F)cc3C2)CC[C@@H](N[C@@H]2CCc3cc(Br)ccc32)C1` [15a, ((1S,3R)-3-(((R)-5-bromo-2,3-dihydro-1H-inden-1-yl)amino)-1-isopropylcyclopentyl)(7-(trifluoromethyl)-3,4-dihydroisoquinolin-2(1H)-yl)methanone]: the k el in series [1] (intraperitoneal, 5 mg/kg, slope of the linear regression of the pharmacokinetic data, read-out: k el (elimination rate constant) (converted)) was 1.8e-05 s⁻¹. In addition, in series [1] (ip, single intraperitoneal dose of 5 mg/kg, mice, range of individual mice, read-out: plasma levels 1 h after administration), the concentration at 1 h fell in the range of 12 to 1460 ng/mL. In addition, the concentration at 2 h in series [1] (ip, single intraperitoneal dose of 5 mg/kg, mice, range of individual mice, read-out: plasma levels 2 h after dosing) lay within 613 to 1050 ng/mL. In addition, the concentration at 6 h in series [1] (ip, single intraperitoneal dose of 5 mg/kg, mice, range of individual mice, read-out: plasma levels 6 h after administration) is 182 to 1020 ng/mL. Also, the concentration at 24 h in series [1] (ip, single intraperitoneal dose of 5 mg/kg, mice, range of individual mice, read-out: plasma levels 24 h after administration) lay in the range of 32 to 331 ng/mL. Also, the half-life in series [1] (ip, single intraperitoneal dose of 5 mg/kg, mice, read-out: elimination half-life (converted)) is 10.7 h. Further, the RT in the series on hCCR2b (hCCR2, ref Vilums et al. [24]) is listed as 714 min. In the series on hCCR2b (hCCR2, ref [24]), the “lifetime (RT) on hCCR2” value is listed as “more than 10 hours”. Also, on hCCR2b (hCCR2, ref [24], read-out: affinity for human CCR2), the pKi is 8.62. Besides, in the series with hCCR2b (hCCR2b, ref Vilums et al. [24]), the KRI is 1.7, the negative-log Kd (pKd) is 9.76, the koff was 2.33e-05 s⁻¹ and the kon was 130000 M⁻¹ s⁻¹.

The values are drawn from paper PMC5427923, “A novel CCR2 antagonist inhibits atherogenesis in apoE deficient mice by achieving high receptor occupancy” (Scientific Reports, 2017).
